Series [1] has as its system PBMC. As to the kind of experiment: Stimulation of immune response in human PBMC assessed as induction of MCP1 production at 150 ug/ml after 24 hrs. Format: functional, cell-based.
Series [2] has as its system PBMC. As to the kind of experiment: Stimulation of immune response in human PBMC assessed as induction of MIP1alpha production at 150 ug/ml after 24 hrs. Format: functional, cell-based.
Series [3] concerns PBMC. The series can be described thus: Stimulation of immune response in human PBMC assessed as induction of IL12 production at 150 ug/ml after 24 hrs. Format: functional, cell-based.
Series [4] has as its system PBMC. As to the kind of experiment: Stimulation of immune response in human PBMC assessed as induction of RANTES production at 150 ug/ml after 24 hrs. In kind it is functional, cell-based.
Series [5] deals with PBMC. The series can be described thus: Stimulation of immune response in human PBMC assessed as induction of IL2R level at 150 ug/ml after 24 hrs. In kind it is functional, cell-based.
Series [6] has as its system PBMC. As to the kind of experiment: Stimulation of immune response in human PBMC assessed as induction of IFNalpha production at 150 ug/ml after 24 hrs. Format: functional, cell-based.
In series [7] the test system is PBMC. The series can be described thus: Stimulation of immune response in human PBMC assessed as induction of IL10 production at 150 ug/ml after 24 hrs. In kind it is functional, cell-based.
The test system of series [8] is PBMC. The series can be described thus: Stimulation of immune response in human PBMC assessed as induction of MIP1beta production at 150 ug/ml after 24 hrs. Format: functional, cell-based.
The test system of series [9] is PBMC. As to the kind of experiment: Stimulation of immune response in human PBMC assessed as induction of IFN-gamma production at 150 ug/ml after 24 hrs. In kind it is functional, cell-based.
For series [10], the system named is PBMC. The series can be described thus: Stimulation of immune response in human PBMC assessed as induction of TNFalpha production at 150 ug/ml after 24 hrs. In kind it is functional, cell-based.
The target in series [11] is T1, Toll-like receptor 8 (Homo sapiens) (UniProt Q9NR97).
T1 sequence (whole entry): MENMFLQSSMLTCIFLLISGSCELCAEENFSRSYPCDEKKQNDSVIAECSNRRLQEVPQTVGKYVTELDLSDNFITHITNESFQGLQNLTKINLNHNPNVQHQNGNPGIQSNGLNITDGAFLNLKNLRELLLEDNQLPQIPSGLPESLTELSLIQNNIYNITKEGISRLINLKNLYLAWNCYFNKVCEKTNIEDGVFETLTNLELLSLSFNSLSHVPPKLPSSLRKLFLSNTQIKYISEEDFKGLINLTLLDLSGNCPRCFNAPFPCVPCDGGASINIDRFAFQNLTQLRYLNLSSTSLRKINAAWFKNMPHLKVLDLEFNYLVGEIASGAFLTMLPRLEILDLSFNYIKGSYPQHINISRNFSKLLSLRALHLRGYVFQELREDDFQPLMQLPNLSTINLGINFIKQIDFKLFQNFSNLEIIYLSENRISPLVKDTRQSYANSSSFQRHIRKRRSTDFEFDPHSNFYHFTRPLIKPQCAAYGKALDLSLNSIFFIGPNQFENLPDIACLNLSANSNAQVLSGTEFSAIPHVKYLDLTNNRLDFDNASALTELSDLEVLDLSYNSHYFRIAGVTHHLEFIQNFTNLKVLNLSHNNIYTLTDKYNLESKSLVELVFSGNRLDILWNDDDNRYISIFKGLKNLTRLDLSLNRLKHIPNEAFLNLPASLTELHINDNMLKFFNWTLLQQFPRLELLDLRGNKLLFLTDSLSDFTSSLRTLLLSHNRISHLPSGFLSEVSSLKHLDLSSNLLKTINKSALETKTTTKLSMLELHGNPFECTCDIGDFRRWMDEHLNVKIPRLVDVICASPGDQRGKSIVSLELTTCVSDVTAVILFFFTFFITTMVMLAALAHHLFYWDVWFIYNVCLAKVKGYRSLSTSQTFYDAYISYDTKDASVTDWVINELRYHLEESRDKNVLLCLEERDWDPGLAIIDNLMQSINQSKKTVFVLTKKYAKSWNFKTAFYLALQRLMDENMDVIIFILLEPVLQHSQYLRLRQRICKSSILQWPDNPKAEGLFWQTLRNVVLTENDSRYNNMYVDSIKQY
As to the kind of experiment: Agonist activity at human TLR8 expressed in HEK293XL cells assessed as NF-kappaB activation after 18 hrs. Format: functional, cell-based.

Series [12] concerns PBMC. The series can be described thus: Stimulation of immune response in human PBMC assessed as induction of IL1-beta production at 150 ug/ml after 24 hrs. In kind it is functional, cell-based.
The species entered for series [13] is Homo sapiens. The series can be described thus: Stimulation of immune response in human pDC assessed as induction of IFNalpha production at 150 ug/ml after 24 hrs. Format: functional.
Another series has as its system Mus musculus. As to the kind of experiment: Stimulation of immune response in C57BL/6 mouse assessed as induction of serum IL12 production at 50 mg/kg, sc after 2 hrs by luminex multiplex assay. Format: functional, organism-based. On the set-up: dose 50 mg/kg.
Series [14] is filed under the species Homo sapiens. The series can be described thus: Stimulation of immune response in human pDC assessed as induction of IL12 production at 150 ug/ml after 24 hrs. Format: functional.
For series [15], the system named is PBMC. As to the kind of experiment: Stimulation of immune response in human PBMC assessed as induction of IL8 production at 150 ug/ml after 24 hrs. Format: functional, cell-based.
Series [16] concerns the target T2, Toll-like receptor 7 (Homo sapiens) (UniProt Q9NYK1).
T2 sequence (whole entry): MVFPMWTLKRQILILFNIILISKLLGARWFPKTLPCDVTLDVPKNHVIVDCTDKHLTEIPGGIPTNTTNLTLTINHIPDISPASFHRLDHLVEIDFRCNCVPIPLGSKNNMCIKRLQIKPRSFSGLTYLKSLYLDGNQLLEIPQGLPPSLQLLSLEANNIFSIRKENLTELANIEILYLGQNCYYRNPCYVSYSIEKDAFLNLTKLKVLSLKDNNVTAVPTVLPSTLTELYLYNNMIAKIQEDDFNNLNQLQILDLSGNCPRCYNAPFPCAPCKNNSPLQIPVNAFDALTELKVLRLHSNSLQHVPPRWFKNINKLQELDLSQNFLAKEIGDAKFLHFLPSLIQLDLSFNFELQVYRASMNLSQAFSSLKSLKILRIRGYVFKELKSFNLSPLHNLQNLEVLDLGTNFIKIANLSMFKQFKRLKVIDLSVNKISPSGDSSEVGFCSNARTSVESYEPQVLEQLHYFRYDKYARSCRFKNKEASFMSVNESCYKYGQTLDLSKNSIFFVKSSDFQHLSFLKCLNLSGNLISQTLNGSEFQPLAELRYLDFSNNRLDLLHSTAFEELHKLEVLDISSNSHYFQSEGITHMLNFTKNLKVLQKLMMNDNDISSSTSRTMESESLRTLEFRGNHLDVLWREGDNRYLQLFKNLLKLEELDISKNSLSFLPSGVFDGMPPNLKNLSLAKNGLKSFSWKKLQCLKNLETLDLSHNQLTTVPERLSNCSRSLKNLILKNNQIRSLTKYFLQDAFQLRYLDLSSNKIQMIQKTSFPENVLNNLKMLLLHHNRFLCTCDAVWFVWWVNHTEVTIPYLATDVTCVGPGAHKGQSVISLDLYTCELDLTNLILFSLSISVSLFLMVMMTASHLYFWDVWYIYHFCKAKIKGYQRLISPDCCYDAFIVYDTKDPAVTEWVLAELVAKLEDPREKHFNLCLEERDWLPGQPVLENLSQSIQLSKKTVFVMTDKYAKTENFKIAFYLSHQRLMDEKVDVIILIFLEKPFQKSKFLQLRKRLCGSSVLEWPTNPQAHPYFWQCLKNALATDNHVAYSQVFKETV
As to the kind of experiment: Agonist activity at human TLR7 expressed in HEK293XL cells assessed as NF-kappaB activation after 18 hrs. In kind it is functional, cell-based.

Series [17] is filed under the species Homo sapiens. The series can be described thus: Stimulation of immune response in human pDC assessed as induction of MIP1beta production at 150 ug/ml after 24 hrs. Format: functional.
Series [18] in a line: Stability in human serum assessed as full-length compound remaining after 10 mins by anion-exchange HPLC. Format: ADME, cell-free. The following applies: read-out: Stability.
For series [19], the species on record is Homo sapiens. The series can be described thus: Stimulation of immune response in human pDC assessed as induction of TNFalpha production at 150 ug/ml after 24 hrs. Format: functional.
The species named for series [20] is Homo sapiens. As to the kind of experiment: Stimulation of immune response in human pDC assessed as induction of IFN-gamma production at 150 ug/ml after 24 hrs. In kind it is functional.
Series [21] is filed under the species Homo sapiens. The series can be described thus: Stimulation of immune response in human pDC assessed as induction of MIP1alpha production at 150 ug/ml after 24 hrs. Format: functional.

Structures are written as SMILES. Active and inactive are the calls of the source. No cut-off for these calls is given here.

Turning to `Nc1ccn([C@@H]2O[C@H](COP(O)(=S)O[C@H]3[C@@H](O)[C@H](n4cnc5c(=O)[nH]c(N)nc54)O[C@@H]3COP(O)(=S)O[C@H]3[C@@H](O)[C@H](n4ccc(=O)[nH]c4=O)O[C@@H]3CO)[C@@H](OP(O)(=S)OC[C@H]3O[C@@H](n4ccc(=O)[nH]c4=O)[C@H](O)[C@@H]3OP(O)(=S)OC[C@H]3O[C@@H](n4cnc5c(=O)[nH]c(N)nc54)[C@H](O)[C@@H]3OP(O)(=S)OC[C@H]3O[C@@H](n4ccc(N)nc4=O)[C@H](O)[C@@H]3OP(O)(=S)OC[C@H]3O[C@@H](n4ccc(=O)[nH]c4=O)[C@H](O)[C@@H]3OP(O)(=S)OC[C@H]3O[C@@H](n4ccc(=O)[nH]c4=O)[C@H](O)[C@@H]3OP(O)(=S)OC[C@H]3O[C@@H](n4cnc5c(=O)[nH]c(N)nc54)[C@H](O)[C@@H]3OP(O)(=S)OC[C@H]3O[C@@H](n4ccc(=O)[nH]c4=O)[C@H](O)[C@@H]3OP(O)(=S)OC[C@H]3O[C@@H](n4cnc5c(=O)[nH]c(N)nc54)[C@H](O)[C@@H]3OP(O)(=S)OCC(O)COP(O)(=S)O[C@H]3[C@@H](O)[C@H](n4cnc5c(=O)[nH]c(N)nc54)O[C@@H]3COP(O)(=S)O[C@H]3[C@@H](O)[C@H](n4ccc(=O)[nH]c4=O)O[C@@H]3COP(O)(=S)O[C@H]3[C@@H](O)[C@H](n4cnc5c(=O)[nH]c(N)nc54)O[C@@H]3COP(O)(=S)O[C@H]3[C@@H](O)[C@H](n4ccc(=O)[nH]c4=O)O[C@@H]3COP(O)(=S)O[C@H]3[C@@H](O)[C@H](n4ccc(=O)[nH]c4=O)O[C@@H]3COP(O)(=S)O[C@H]3[C@@H](O)[C@H](n4ccc(N)nc4=O)O[C@@H]3COP(O)(=S)O[C@H]3[C@@H](O)[C@H](n4cnc5c(=O)[nH]c(N)nc54)O[C@@H]3COP(O)(=S)O[C@H]3[C@@H](O)[C@H](n4ccc(=O)[nH]c4=O)O[C@@H]3COP(O)(=S)O[C@H]3[C@@H](O)[C@H](n4ccc(N)nc4=O)O[C@@H]3COP(O)(=S)O[C@H]3[C@@H](O)[C@H](n4cnc5c(=O)[nH]c(N)nc54)O[C@@H]3COP(O)(=S)O[C@H]3[C@@H](O)[C@H](n4ccc(=O)[nH]c4=O)O[C@@H]3CO)[C@H]2O)c(=O)n1` (some centres not stated), the outcome in the series with PBMC [1], with PBMC [2], in the series on PBMC [3], in the series on PBMC [4], in the series on PBMC [5] and with PBMC [6] was Active. Moreover, the outcome in the series with PBMC [7], in the series with PBMC [8], in the series on PBMC [9], in the series with PBMC [10], in the series with PBMC [12] and in the series filed under Homo sapiens [14] was Active. The outcome in the series on PBMC [15], in the series filed under Homo sapiens [17], in the series filed under Homo sapiens [19], in the series filed under Homo sapiens [20] and in the series filed under Homo sapiens [21] was Active. In addition, in series [11], the Activity result was “Dose-dependent effect”. Besides, the result (in the series filed under Homo sapiens [13]; with Mus musculus; in [16]) was inactive. For the same molecule, the remaining at 10 min in [18] amounted to 75%.

Source of the values: ChEMBL document CHEMBL1151840, “Synthetic oligoribonucleotides containing arabinonucleotides act as agonists of TLR7 and 8” (Bioorg Med Chem Lett, 2009).
